Patent publication US6833150B1, “Spray -dried bacteriocin powder with anti-microbial activity” (Teagasc, The Agriculture and Food Development Authority, priority 2001, dated 2004)

What was measured:
[1] = tested on: L. lactis subsp lactis HP; test: Bacteriocin activity by agar well diffusion assay; format: cell-based, Lactococcus lactis; conditions: for Bacteriocin activity: 10% reconstituted demineralized whey powder; for Lacticin 3147 activity: overnight incubation at 30° C.
Experimental: Bacteriocin activity was determined by the agar well diffusion assay as described by Parente and Hill (15). Molten agar was seeded with an indicator strain and dispensed into petri dishes. Wells of approximately 4.6 mm in diameter were bored in the agar and a 50 μl volume of a two fold serial dilution of a bacteriocin preparation was dispensed into each well. Bacteriocin solution was prepared by centrifuging the culture and heat treating the supernatant at 70° C. for 10 minutes prior to carrying out the dilution series. The plates were then incubated at either 30° C. or 37° C., depending on the indicator strain used. Bacteriocin activity was calculated as the inverse of the last dilution that gave a definite zone of clearance after overnight incubation. Activity units (AU) were expressed per milliliter (1/dilution, ×20).
(§1) Activity of both lacticin 3147 preparations was determined by the agar well diffusion assay as described by Parente and Hill (15). Molten agar was seeded with the indicator strain L. lactis subsp. lactis HP and dispensed into petri dishes. Wells of approximately 6.0 mm in diameter were bored in the agar and a 50 μl volume of a two fold serial dilution of a bacteriocin preparation was dispensed into each well. The plates were then incubated at 30° C. Bacteriocin activity was calculated as the inverse of the last dilution that gave a definite zone of clearance after overnight incubation. Activity units (AU) were expressed per milliliter (1/dilution, ×20). Activity may also be expressed as zone diameter (mm), where the diameter of the first zone (neat, undiluted sample) of the dilution series is recorded.

[2] = tested on: Gram-positive organisms, including Listeria, Clostridium spp., Enterococcus, Staphylococcus and Streptococcus; conditions: cited from earlier work
[3] = tested on: L. lactis HP; test: Effect of high pressure on lacticin 3147 activity (well diffusion assay); format: cell-based, Lactococcus lactis; conditions: pressures greater than 400 MPa
Experimental: as §1
Pressurised and non-pressurised solutions of lacticin 3147 were heat treated at 80° C. for 10 minutes prior to carrying out activity determination by the well diffusion assay using L. lactis HP as an indicator strain.

[4] = tested on: Staph. aureus ATCC6538; test: High pressure and lacticin 3147 inactivation in milk (10% RSM); format: cell-based, Staphylococcus aureus
Experimental: For the inactivation of Staph. aureus ATCC6538 a liquid preparation of lacticin 3147 was prepared using hydrophobic adsorption chromatography. For studies on inactivation of L. innocua DPC1770 a food grade powdered preparation of lacticin 3147 was manufactured as described above with the following modification; a 1% demineralised whey powder solution was fermented with L. lactis subsp. lactis DPC3147 under pH controlled conditions of pH 6.0 for 18 hours.
Staph. aureus ATCC6538 cells were resuspended in 10% RSM and aliquoted into sterile 700 μl PCR eppendorfs prior to placing in sterile stomacher bags (Seward Ltd., London, UK). Ten millilitre volumes of L. innocua DPC1770 cells were resuspended in 20% reconstituted demineralised whey powder aliquoted into sterile stomacher bags. Samples were individually vacuum sealed prior to placing in the pressure vessel (Stansted Fluid Power Ltd., Stansted, England). The vessel consisted of a stainless-steel cylinder (37 mm diameter×300 mm height) filled with a 15% (v/v) caster oil in ethanol solution which acts as the hydrostatic pressurisation medium. Samples were treated for 30 min at 25° C. in the pressure range 150 to 600 MPa, in addition to a control sample being held at atmospheric pressure (0.1 MPa). […] The chamber temperature was determined by means of a thermoregulating system which circulated to maintain the chamber temperature.

## lacticin 3147
[1]; constant pH 6.0, 30° C.
  Bacteriocin activity: 5120 AU/ml
[1]; constant pH 7.0, 30° C.
  Bacteriocin activity: 5120 AU/ml
[1]; no pH control, 30° C.
  Bacteriocin activity: 640 AU/ml
[1]; pH held constant at pH 6.5, 30° C.
  Bacteriocin activity: 10,240 AU/ml
[1]; 72° C. for 15 sec
  Effect of pasteurisation on bacteriocin activity: no effect
[1]; after evaporation at 60° C. from 10% to 40% total solids
  Bacteriocin activity during manufacture: 40,960 AU/ml
[1]; cooled from 32° C. at 1° C. per hour overnight
  Activity of the concentrate following overnight crystallisation: remained stable
[1]; following the pH controlled 170 L fermentation (pH 6.5, 10% total solids)
  Bacteriocin activity during manufacture: 10,240 AU/ml
[1]; growth medium 10% reconstituted demineralised whey powder
  Lacticin 3147 activity: 1,280 AU/ml
[1]; growth medium 10% reconstituted demineralised whey powder, listed as Lacticin 3147
  Lacticin 3147 activity: 1280 AU/ml
[1]; growth medium 10% reconstituted skimmed milk powder
  Lacticin 3147 activity: 1,280 AU/ml
[1]; growth medium 10% reconstituted skimmed milk powder, listed as Lacticin 3147
  Lacticin 3147 activity: 1280 AU/ml
[1]; growth medium Cheddar cheese whey
  Lacticin 3147 activity: 2,560 AU/ml
[1]; growth medium Cheddar cheese whey, listed as Lacticin 3147
  Lacticin 3147 activity: 2560 AU/ml
[1]; growth medium LM17
  Lacticin 3147 activity: 2,560 AU/ml
[1]; growth medium LM17, listed as Lacticin 3147
  Lacticin 3147 activity: 2560 AU/ml
[1]; growth medium TY broth
  Lacticin 3147 activity: 640 AU/ml
[1]; growth medium whey protein concentrate (WPC35)
  Lacticin 3147 activity: 320 AU/ml
[1]; growth medium whole milk
  Lacticin 3147 activity: 2,560 AU/ml
[1]; growth medium whole milk, listed as Lacticin 3147
  Lacticin 3147 activity: 2560 AU/ml
[1]; remained constant through pasteurisation, evaporation, crystallisation, spray drying
  Lacticin 3147 activity expressed as AU/g of dry matter throughout manufacture: 102,400 AU/g
[2]
  inhibitory spectrum: inhibitory to a wide range of Gram-positive organisms
[3]
  change in bacteriocin activity after pressure treatment: doubling of activity
[4]; combination of 250 MPa and lacticin 3147, 30 min at 25° C.
  logs of kill: more than 6 logs
[4]; concentrated lacticin 3147 from culture supernatant alone
  log reduction: 1 log
